Measured values: PubChem BioAssay AID330 (DTP/NCI, 2004)
“And” between values parts separate entries of the source, which are not always exact repeats. Equal entries are not always repeated. Toxic doses and inconclusive results are not listed.

Tested on: P388 leukemia ip, CD2F1 mice, survival T/C
Assay: NCI In Vivo Anticancer Drug Screen. Data for tumor model P388 Leukemia (intraperitoneal) in CD2F1 (CDF1) mice
Conditions: endpoint: median survival time, higher = longer survival
Method in brief: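 Mice carrying the transplanted tumor received test compound or vehicle. Survival was recorded in each group, and the value is the treated-group measurement divided by that of the vehicle-treated control group.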

[1] = dose: 25.0 mg/kg/injection, schedule: Q01DX005 (ip), vehicle: Klucel (hydroxypropylcellulose) (HPC)
[2] = dose: 50.0 mg/kg/injection, schedule: Q01DX005 (ip), vehicle: Klucel (hydroxypropylcellulose) (HPC)
[3] = dose: 25.0 mg/kg/injection, schedule: Q01DX009 (ip), vehicle: saline with Tween-80
[4] = dose: 50.0 mg/kg/injection, schedule: Q01DX009 (ip), vehicle: saline with Tween-80
[5] = dose: 100.0 mg/kg/injection, schedule: Q01DX009 (ip), vehicle: saline with Tween-80
[6] = dose: 50.0 mg/kg/injection, schedule: Q01DX009 (ip), vehicle: saline
[7] = dose: 100.0 mg/kg/injection, schedule: Q01DX009 (ip), vehicle: saline
[8] = dose: 200.0 mg/kg/injection, schedule: Q01DX009 (ip), vehicle: saline
[9] = dose: 100.0 mg/kg/injection, schedule: Q01DX005 (ip), vehicle: Klucel (hydroxypropylcellulose) (HPC)
[10] = dose: 200.0 mg/kg/injection, schedule: Q01DX005 (ip), vehicle: Klucel (hydroxypropylcellulose) (HPC)
[11] = dose: 100.0 mg/kg/injection, schedule: Q01DX001 (ip), vehicle: Klucel (hydroxypropylcellulose) (HPC)
[12] = dose: 200.0 mg/kg/injection, schedule: Q01DX001 (ip), vehicle: Klucel (hydroxypropylcellulose) (HPC)
[13] = dose: 400.0 mg/kg/injection, schedule: Q01DX001 (ip), vehicle: Klucel (hydroxypropylcellulose) (HPC)

For `CCOC(=O)C(CC(C)C)NC(=O)C(Cc1ccc(N(CCCl)CCCl)cc1)NC(C)=O` (stereo not given), the T/C (dose: 0.25 mg/kg/injection, schedule: Q01DX009 (ip), vehicle: saline) was 101 % of control, the T/C (dose: 0.5 mg/kg/injection, schedule: Q01DX009 (ip), vehicle: saline) was 115 % of control and the T/C (dose: 1.0 mg/kg/injection, schedule: Q01DX009 (ip), vehicle: saline) was 111 % of control. The T/C (dose: 2.0 mg/kg/injection, schedule: Q01DX009 (ip), vehicle: Klucel (hydroxypropylcellulose) (HPC)) was 109 % of control, the T/C (dose: 2.0 mg/kg/injection, schedule: Q01DX009 (ip), vehicle: olive oil, sesame oil, peanut oil) was 111 % of control and the T/C (dose: 2.0 mg/kg/injection, schedule: Q01DX009 (ip), vehicle: saline with Tween-80) was 100 % of control. For the same molecule, the T/C (dose: 4.0 mg/kg/injection, schedule: Q01DX009 (ip), vehicle: Klucel (hydroxypropylcellulose) (HPC)) was 110 % of control, the T/C (dose: 4.0 mg/kg/injection, schedule: Q01DX009 (ip), vehicle: olive oil, sesame oil, peanut oil) was 120 % of control and the T/C (dose: 4.0 mg/kg/injection, schedule: Q01DX009 (ip), vehicle: saline with Tween-80) was 100 % of control. The T/C (dose: 8.0 mg/kg/injection, schedule: Q01DX009 (ip), vehicle: Klucel (hydroxypropylcellulose) (HPC)) was 120 % of control, the T/C (dose: 8.0 mg/kg/injection, schedule: Q01DX009 (ip), vehicle: saline with Tween-80) was 109 % of control and the T/C (dose: 8.0 mg/kg/injection, schedule: Q01DX009 (ip), vehicle: saline) was 163 % of control. The T/C (dose: 12.5 mg/kg/injection, schedule: Q01DX005 (iv), vehicle: Klucel (hydroxypropylcellulose) (HPC)) was 116 % of control, the T/C (dose: 16.0 mg/kg/injection, schedule: Q01DX009 (ip), vehicle: saline with Tween-80) was 111 % of control and the T/C (dose: 16.0 mg/kg/injection, schedule: Q01DX009 (ip), vehicle: saline) was 163 % of control and 225 % of control. The T/C (dose: 16.0 mg/kg/injection, schedule: Q04DX003 (ip), vehicle: saline with Tween-80) was 152 % of control, the T/C (dose: 18.9 mg/kg/injection, schedule: Q04DX003 (ip), vehicle: saline with Tween-80) was 152 % of control and the T/C [1] was 174 % of control. For the same molecule, the T/C (dose: 28.4 mg/kg/injection, schedule: Q04DX003 (ip), vehicle: saline with Tween-80) was 161 % of control, the T/C (dose: 32.0 mg/kg/injection, schedule: Q01DX009 (ip), vehicle: Klucel (hydroxypropylcellulose) (HPC)) was 172 % of control and the T/C (dose: 32.0 mg/kg/injection, schedule: Q01DX009 (ip), vehicle: olive oil, sesame oil, peanut oil) was 175 % of control. The T/C (dose: 32.0 mg/kg/injection, schedule: Q01DX009 (ip), vehicle: saline with Tween-80) was 117 % of control, the T/C (dose: 32.0 mg/kg/injection, schedule: Q04DX003 (ip), vehicle: saline with Tween-80) was 189 % of control and the T/C (dose: 42.6 mg/kg/injection, schedule: Q04DX003 (ip), vehicle: saline with Tween-80) was 172 % of control. The T/C [2] was 230 % of control, the T/C (dose: 50.0 mg/kg/injection, schedule: Q01DX005 (iv), vehicle: Klucel (hydroxypropylcellulose) (HPC)) was 156 % of control and the T/C (dose: 64.0 mg/kg/injection, schedule: Q01DX009 (ip), vehicle: Klucel (hydroxypropylcellulose) (HPC)) was 151 % of control. The T/C (dose: 64.0 mg/kg/injection, schedule: Q04DX003 (ip), vehicle: saline with Tween-80) was 188 % of control and 211 % of control, the T/C (dose: 96.0 mg/kg/injection, schedule: Q04DX003 (ip), vehicle: saline with Tween-80) was 170 % of control and the T/C (dose: 128.0 mg/kg/injection, schedule: Q01DX009 (ip), vehicle: saline with Tween-80) was 152 % of control. The T/C (dose: 256.0 mg/kg/injection, schedule: Q01DX009 (ip), vehicle: other) was 151 % of control, the T/C (dose: 256.0 mg/kg/injection, schedule: Q01DX009 (ip), vehicle: saline with Tween-80) was 152 % of control and 157 % of control and the T/C (dose: 512.0 mg/kg/injection, schedule: Q01DX009 (ip), vehicle: other) was 179 % of control. For the same molecule, the T/C (dose: 512.0 mg/kg/injection, schedule: Q01DX009 (ip), vehicle: saline with Tween-80) was 185 % of control.

In the case of `O=C(NCc1ccccc1)N1CCN(c2ccccc2)C1=O`, the T/C [3] is reported as 103 % of control and 88 % of control, the T/C [4] is reported as 98 % of control and 89 % of control and 96 % of control and the T/C [5] is reported as 97 % of control. For the same molecule, the T/C (dose: 200.0 mg/kg/injection, schedule: Q01DX009 (ip), vehicle: saline with Tween-80) was 98 % of control and 89 % of control and 93 % of control.

For `CCCc1cc(=O)[nH]c(Sc2ccc([N+](=O)[O-])cn2)n1`, the T/C (dose: 3.12 mg/kg/injection, schedule: Q01DX005 (ip), vehicle: Klucel (hydroxypropylcellulose) (HPC)) was 101 % of control, the T/C (dose: 6.25 mg/kg/injection, schedule: Q01DX005 (ip), vehicle: Klucel (hydroxypropylcellulose) (HPC)) was 101 % of control and the T/C (dose: 12.5 mg/kg/injection, schedule: Q01DX005 (ip), vehicle: Klucel (hydroxypropylcellulose) (HPC)) was 106 % of control.

For `COc1ccc(C(O)(CS(C)=O)c2cccs2)cc1` (stereo not given), the T/C (dose: 12.5 mg/kg/injection, schedule: Q01DX009 (ip), vehicle: saline with Tween-80) was 94 % of control and 97 % of control, the T/C [3] was 100 % of control and 102 % of control and the T/C [4] was 110 % of control and 96 % of control. The T/C [5] was 91 % of control and 96 % of control.

For `Cc1no[n+]([O-])c1C(=O)NN`, the T/C (dose: 60.0 mg/kg/injection, schedule: Q01DX005 (ip), vehicle: Klucel (hydroxypropylcellulose) (HPC)) was 103 % of control, the T/C (dose: 120.0 mg/kg/injection, schedule: Q01DX005 (ip), vehicle: Klucel (hydroxypropylcellulose) (HPC)) was 94 % of control and the T/C (dose: 240.0 mg/kg/injection, schedule: Q01DX005 (ip), vehicle: Klucel (hydroxypropylcellulose) (HPC)) was 100 % of control.

With `COCCCn1c(-c2cc(OC)c(OC)c(OC)c2)nn2c(=O)c3ccccc3nc2c1=O` the T/C [6] was 102 % of control, the T/C [7] was 107 % of control and the T/C [8] was 101 % of control.

For `CCOC(=O)C(Cc1c[nH]c2ccccc12)NCCN` (stereo not given), the T/C [6] was 99 % of control, the T/C [7] was 108 % of control and the T/C [8] was 86 % of control.

`COc1cccc2c1C1c3ccccc3Sc3cccc(c31)O2` (stereo not given) was tested, and the T/C [1] was 98 % of control, the T/C [2] was 100 % of control and the T/C [9] was 100 % of control. The T/C [10] was 99 % of control.

For `C/C(=N\NC(=S)N1CCC(C)CC1)c1cccc2cccnc12`, the T/C (dose: 50.0 mg/kg/injection, schedule: Q01DX005 (ip), vehicle: saline with Tween-80) was 106 % of control and the T/C (dose: 100.0 mg/kg/injection, schedule: Q01DX005 (ip), vehicle: saline with Tween-80) was 104 % of control.

With `CC(C)=NN/C=N/S(=O)(=O)c1ccc(C)cc1` the T/C [2] was 104 % of control, the T/C [9] was 104 % of control and the T/C [10] was 104 % of control.

For `O=C(O)CCCC12CCC(CCCC(=O)O)(CC1)CC2`, the T/C (dose: 100.0 mg/kg/injection, schedule: Q04DX003 (ip), vehicle: Klucel (hydroxypropylcellulose) (HPC)) was 99 % of control, the T/C (dose: 200.0 mg/kg/injection, schedule: Q04DX003 (ip), vehicle: Klucel (hydroxypropylcellulose) (HPC)) was 97 % of control and the T/C (dose: 400.0 mg/kg/injection, schedule: Q04DX003 (ip), vehicle: Klucel (hydroxypropylcellulose) (HPC)) was 104 % of control.

For `O=C(NCCc1ccccc1Br)c1ccccc1`, the T/C [2] was 100 % of control, the T/C [9] was 97 % of control and the T/C [10] was 93 % of control.

For `O=C(Nc1ccccc1)C1(Cl)CCCCC1`, the T/C [11] was 90 % of control, the T/C [12] was 92 % of control and the T/C [13] was 91 % of control.

For `CCOc1cc(C(C)c2ccc(OC)cc2)c(OCC)cc1OC` (stereo not given), the T/C (dose: 60.0 mg/kg/injection, schedule: Q01DX005 (ip), vehicle: saline with Tween-80) was 106 % of control, the T/C (dose: 120.0 mg/kg/injection, schedule: Q01DX005 (ip), vehicle: saline with Tween-80) was 100 % of control and the T/C (dose: 240.0 mg/kg/injection, schedule: Q01DX005 (ip), vehicle: saline with Tween-80) was 103 % of control.

For `CC12CSC(C)(SC1)SC2`, the T/C (dose: 25.0 mg/kg/injection, schedule: Q01DX001 (ip), vehicle: Klucel (hydroxypropylcellulose) (HPC)) was 99 % of control, the T/C (dose: 50.0 mg/kg/injection, schedule: Q01DX001 (ip), vehicle: Klucel (hydroxypropylcellulose) (HPC)) was 99 % of control and the T/C [11] was 100 % of control. For the same molecule, the T/C [12] was 100 % of control and the T/C [13] was 95 % of control.

For `N#C/C(=C\c1cccs1)c1nc(-c2ccc(Cl)cc2)cs1`, the T/C [6] was 91 % of control and the T/C [7] was 91 % of control.

For `N#CCC1(C#N)CCC(OCc2ccccc2)CC1` (stereo not given), the T/C [6] was 100 % of control and 99 % of control, the T/C [7] was 100 % of control and the T/C [8] was 102 % of control and 101 % of control.
